Results reported in patent publication US8859783B2, “Indirubin-3′-oxime derivatives as potent cyclin dependent kinase inhibitors” (Anygen Co., Ltd., priority 2010, dated 2014).
Entries after “also recorded” stand apart in the source; their conditions may differ.

What was measured:
[1] = tested on: KB human nasopharyngeal cancer cell; assay: SRB cell proliferation assay, KB; format: cell-based; conditions: 72 h, 3 days
Method: (§1) ^a A series of indirubin derivatives were tested at five concentrations for their effects on various human cancer cell lines using SRB assay, as described in the Experimental Section.
(§2) Cells (A549, HT1080, HCT116, K562, SNU638, KB, MCF-7) were counted, diluted to 5×10^4 cells/mL with fresh medium (MEME, DMEM or RPMI containing 10% FBS), and added 190 μL of cell suspension to 96-well plates containing various concentrations of test compounds (10 μL in 10% aqueous DMSO). Test plates were incubated for 3 days at 37° C. in CO2 incubator. For zero day controls, cells were incubated for 30 min at 37° C. in CO2 incubator. All treatments were performed in triplicate. After the incubation periods, cells were fixed with 50 μL of cold 50% TCA at 4° C. for 30 min, washed 5 times with tap water, and air-dried. The fixed cells were stained with 0.4% SRB solution in 1% aqueous acetic acid at room temperature for 1 h. Free SRB solution was then removed by rinsing 5 times with 1% acetic acid, and air-dried. The bound dye was dissolved with 200 µL of 10 mM Tris-base (pH 10.0), and absorbance was determined at 515 nm using an ELISA microplate reader. Finally, the absorbance values obtained with each of the treatment procedures were averaged, and the average values obtained with the zero day control were subtracted.

[2] = tested on: MCF-7 human breast cancer cell; assay: SRB cell proliferation assay, MCF-7; format: cell-based; conditions: MCF7, 72 h, 3 days
Method: as §1, §2

[3] = tested on: HT1080 human fibro sarcoma cell; assay: SRB cell proliferation assay, HT1080; format: cell-based; conditions: HT-1080, 72 h, 3 days
Method: as §1, §2

[4] = tested on: A549 human lung cancer cell; assay: SRB cell proliferation assay, A549; format: cell-based; conditions: A549, 72 h, 3 days
Method: as §1, §2

[5] = tested on: CDK1; conditions: from a report; read-out: CDK1 inhibitory activity IC50; cited from earlier work
[6] = tested on: K562 human leukemia cell; assay: SRB cell proliferation assay, K562; format: cell-based; conditions: K562, 72 h, 3 days
Method: as §1, §2

[7] = tested on: SNU638 human stomach cancer cell; assay: SRB cell proliferation assay, SNU638; format: cell-based; conditions: SNU-638, 72 h, 3 days
Method: as §1, §2

[8] = tested on: HCT116 human colon cancer cell; assay: SRB cell proliferation assay, HCT116; format: cell-based; conditions: 3 days
Method: as §1, §2

[9] = biological target: T1, IKKβ (Homo sapiens, UniProt O14920); assay: HTRF kinase assay, IKKβ; format: biochemical; conditions: dose response curves; read-out: IC50 against IKKβ
T1 construct: Recombinant proteins containing kinase domain were purchased from Millipore (Billerica, Mass.); purchased Millipore (Billerica, Mass.)
T1 sequence (O14920 15-300 limits assumed): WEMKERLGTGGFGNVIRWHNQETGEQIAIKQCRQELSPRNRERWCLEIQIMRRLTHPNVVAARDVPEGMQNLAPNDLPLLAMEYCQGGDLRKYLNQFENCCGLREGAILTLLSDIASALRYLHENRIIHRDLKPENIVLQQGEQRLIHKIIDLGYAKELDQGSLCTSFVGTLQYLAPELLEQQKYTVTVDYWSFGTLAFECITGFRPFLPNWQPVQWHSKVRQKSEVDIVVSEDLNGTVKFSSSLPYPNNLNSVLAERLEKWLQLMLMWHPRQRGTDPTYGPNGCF
Method: (§3) Inhibition of kinase activity against a variety of recombinant kinases (c-Met, Met M1250T, Ron, VEGF2, EGFR, TrkA, PI3Kγ, IKKβ Insulin receptor, Aurora A) was measured using homogeneous time-resolved fluorescence (HTRF) assays. Briefly, assays are based on the phosphorylation of peptide substrates in the presence of ATP. Resulting phosphorylated substrates are detected by TR-FRET (Time Resolved-Fluorescence Resonance Energy Transfer) signal. Recombinant proteins containing kinase domain were purchased from Millipore (Billerica, Mass.). Optimal enzyme, ATP, and substrate concentrations were established for each enzyme using HTRF KinEASE kit (Cisbio) according to the manufacturer's instruction. Assays are consisted of enzymes mixed with serially diluted compounds and peptide substrates in kinase reaction buffer (250 mM HEPES (pH 7.0), 0.5 mM orthovanadate, 0.05% BSA, 0.1% NaN3). Following the addition of reagents for detection, TR-FRET signal was measured using EnVision multi-label reader (Perkin Elmer, Waltham, Mass.).

[10] = Tumor xenograft animal model, body weight; format: in vivo, SD rats; conditions: 5 mg/kg i.v. every other day, five times
Description: The k-ras-transformed rat kidney epithelial cell line (RK3E-ras) were maintained in DMEM supplemented with 10% FCS, 100 units/mL penicillin, and 100 Ag/mL streptomycin. RK3E-ras cells were kindly provided by Dr. Eric Fearon (University of Michigan Medical School, Ann Arbor, Mich.) and have been described in the previous report. Male SD rats (6 weeks of age) were used to examine the inhibition of tumor growth in vivo. RK3E-ras-Luc cells (5×10^6) were implanted subcutaneously into the flank of the rats on Day 0, and rats were grouped randomly (5 […]/group) on Day 5 as previously described. […] The animals were sacrificed 48 hr after the final administration, and rat weights and tumor volumes were measured. The tumor growth volumes were calculated as follows: V=(ab^2)/2, where, a is the longest diameter and b is the shortest diameter of the tumor. All experiments were conducted under protocols approved by the Animal Care and Use Committee at Chosun University School of Dentistry (Gwangju, South Korea).

[11] = tested on: RK3E-ras-Luc cells; assay: Histology (H&E) of tumor tissue; format: in vivo, SD rats; conditions: 5 mg/kg i.v.
Method: (§4) The excised solid tumors were fixed in 10% buffered formalin and embeddedin paraffin. For optical microscopic examinations, 4-μm sectioned tissues were stained with H&E. Immunohistochemical staining was performed with the avidin-biotin complex method using anti-PCNA antibodies. The immune reactions were visualized with 3,3′-diaminobenzidine and counterstained with Mayer's hematoxylin. A TUNEL assay was performed using an ApopTag PlusPeroxidase In Situ Apoptosis Detection kit (Intergen, Purchase, N.Y.) according to the manufacturer's instructions. Briefly, the slides were deparaffinized and treated with 20 μg/mL proteinase K at 37° C. for 15 min to enhance staining. After immersion 3% hydrogen peroxide to block the endogenous peroxidase, the slides were incubated with a reaction buffer containing terminal de-oxynucleotidyl transferase at 37° C. for 1 h. The slides were then incubated with a peroxidase-conjugated anti-digoxigenin antibody for 30 min, and the reaction products were visualized with a 0.03% 3,3′-diaminobenzidine solution containing 2 mM hydrogen peroxide. The slides were counterstained with 0.5% methyl green.

[12] = tested on: several human cancer cell lines; assay: SRB cell proliferation assay, summary over cell lines; format: cell-based; conditions: Homo sapiens, range over cell lines; read-out: anti-proliferative IC50, range over cancer cell lines
Method: as §1, §2

[13] = biological target: T2, CDK2/cyclin E (Homo sapiens, UniProt P24941); assay: CDK2/cyclin E kinase assay; format: biochemical; conditions: ten concentrations, dose response curves; read-out: CDK2/cyclin E inhibitory activity IC50
T2 construct: purchased Milipore (Billerica, Mass.)
Method: CDK1/cyclin B, CDK2/cyclin E were purchased from Milipore (Billerica, Mass.). The kinase activity was tested in buffer (8 mM MOPS pH 7.0, 0.2 mM EDTA, 10 mM MgAcetate), with 0.1 mg/mL histone H1, in the presence of 45 µM [—^33P] ATP (500 cpm/pmol) for CDK1 or 120 μM [γ—^33P] ATP (500 cpm/pmol) for CDK2 in a final reaction volume of […]. The reaction was initiated by the addition of the MgATP mix. After incubation for 40 min at 30° C., the reaction was stopped by the addition of 5 μL of 3% phosphoric acid solution. 10 μL aliquots of supernatant were spotted onto 2.5 cm×3 cm pieces of Whatman […] phosphocellulose paper, and 20 s later, the filters were washed three times for 5 min in 75 mM phosphoric acid and once in methanol prior to drying. The […] filters were counted in the presence of 1 mL of ACS (Amersham) scintillation fluid. The activities are usually expressed as a percentage of the maximal activity, i.e., in the absence of inhibitors. Controls were applied with appropriate dilutions of DMSO.

[14] = tested on: T3, c-Met, Met M1250T, Ron, VEGF2, EGFR, TrkA, PI3Kγ, IKKβ Insulin receptor, Aurora A; assay: Kinase panel screening (HTRF); format: biochemical; conditions: 10 μM
T3 construct: other: 10 μM
Method: as §3

[15] = biological target: CDK1/cyclin B (Homo sapiens, UniProt P06493); assay: CDK1/cyclin B kinase assay; format: biochemical; conditions: read-out: IC50 in CDK1/cycline B kinase assay
CDK1/cyclin B, sequence (P06493 whole entry): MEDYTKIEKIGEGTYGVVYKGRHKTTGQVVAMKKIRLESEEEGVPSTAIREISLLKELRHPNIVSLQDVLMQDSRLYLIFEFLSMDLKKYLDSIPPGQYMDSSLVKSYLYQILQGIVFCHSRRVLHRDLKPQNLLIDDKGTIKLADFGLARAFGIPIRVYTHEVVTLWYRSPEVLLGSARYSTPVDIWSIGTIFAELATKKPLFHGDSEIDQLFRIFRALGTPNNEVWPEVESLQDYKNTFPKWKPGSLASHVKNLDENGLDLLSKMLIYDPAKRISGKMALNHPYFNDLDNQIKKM
CDK1/cyclin B, sequence (P14635 whole entry partner): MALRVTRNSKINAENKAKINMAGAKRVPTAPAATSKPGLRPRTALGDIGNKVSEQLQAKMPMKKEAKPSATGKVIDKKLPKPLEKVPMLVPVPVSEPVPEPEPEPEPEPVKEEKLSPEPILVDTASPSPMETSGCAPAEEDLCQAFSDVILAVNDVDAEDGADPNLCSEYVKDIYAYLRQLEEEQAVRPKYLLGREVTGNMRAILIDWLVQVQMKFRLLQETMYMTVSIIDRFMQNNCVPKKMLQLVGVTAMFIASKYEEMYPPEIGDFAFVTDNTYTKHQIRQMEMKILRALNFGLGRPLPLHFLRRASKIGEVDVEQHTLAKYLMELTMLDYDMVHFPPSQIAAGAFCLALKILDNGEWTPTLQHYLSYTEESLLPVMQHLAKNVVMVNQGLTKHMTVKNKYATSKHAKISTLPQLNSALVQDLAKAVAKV
Description: The reaction was initiated by the addition of the MgATP mix.

[16] = tested on: PCNA; assay: Immunohistochemical staining for PCNA in tumor; format: in vivo, SD rats; conditions: 5 mg/kg i.v.
Method: as §4

[17] = tested on: RK3E-ras-Luc cells; assay: TUNEL assay on tumor sections; format: in vivo, SD rats; conditions: 5 mg/kg i.v.
Method: as §4

[18] = biological target: T4, TrkA (Homo sapiens, UniProt P04629); assay: HTRF kinase assay, TrkA; format: biochemical
T4 construct: Recombinant proteins containing kinase domain were purchased from Millipore (Billerica, Mass.); purchased Millipore (Billerica, Mass.)
T4 sequence (P04629 510-781 limits assumed): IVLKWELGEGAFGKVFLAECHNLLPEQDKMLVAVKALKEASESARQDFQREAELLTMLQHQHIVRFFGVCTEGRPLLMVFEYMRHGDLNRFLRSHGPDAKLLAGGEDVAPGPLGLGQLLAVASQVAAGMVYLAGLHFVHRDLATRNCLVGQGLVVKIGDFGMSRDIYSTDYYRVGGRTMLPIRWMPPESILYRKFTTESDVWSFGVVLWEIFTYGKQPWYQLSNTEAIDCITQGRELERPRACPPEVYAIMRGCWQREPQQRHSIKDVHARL
Method: as §3

[19] = tested on: RK3E-ras-Luc cells; assay: In vivo bioluminescence imaging assay; parameters: species or system SD rats; conditions: day 10 after treatment, 5 mg/kg i.v.
Description: For bioluminescence imaging, the rats received an i.p. injection of luciferin (Molecular Probes, Palo Alto, Calif.) with Rumpun/ketamine (1:1) anesthesia. The rats were imaged using a LAS-1000 plus imaging System (Fuji film. Tokyo. Japan) to record the bioluminescent signal emitted from the tumor. The LAS-1000 system equipped with a CCD camera was used for acquisition of the emitted light, and Living Image software (Multi Gauge v3.0) was used for data analysis.

| SMILES | IC50 [1] [nM] | IC50 [2] [nM] | IC50 [3] [nM] | IC50 [4] [nM] | IC50 [6] [nM] | IC50 [7] [nM] | IC50 ([8]; Homo sapiens, HCT-116, 72 h) [nM] | IC50 [13] [nM] | inhibitory activity against kinase panel [14] | also measured |
| --- | --- | --- | --- | --- | --- | --- | --- | --- | --- | --- |
| O=C1Nc2ccc([N+](=O)[O-])cc2C1=C1Nc2ccc(Br)cc2C1=NO [Compound 2, 5′-Bromo-5-nitro-indirubin-3′-oxime, reference compound] | 1160 | 950 | 1450 | 16900 | 770 | 1140 | 450 |  |  | IC50 [5]: 190 nM |
| O=C1Nc2ccc([N+](=O)[O-])cc2/C1=C1/Nc2ccc(O)cc2C1=NO [Compound 11b, (2′Z, 3′E)-5′-Hydroxy-5-nitro-indirubin-3′-oxime] | 1300 | 1200 |  |  |  |  |  | 1.91 | weak inhibitory activity only against Aurora A, IKKβ and TrkA | IC50 [9]: 10000 nM; body weight compared with control [10]: without loss of body weight; also recorded: no significant difference in body weight; histological analysis of treated tumor [11]: extensive cell death; IC50 [12]: 200 to 3300 nM; IC50 [15]: 13 nM; expression level of PCNA compared with control [16]: decreased; TUNEL-positive apoptotic cells compared with control tissue [17]: about 6.0 fold; inhibition at 1 µM ([18]; 1 μM, read-out: inhibitory activity against TrkA): 9%; IC50 ([18]; dose response curves, read-out: IC50 against TrkA): 4000 nM; luminescence intensity (indicator of tumor growth) [19]: significantly decreased |
| O=C1Nc2ccc([N+](=O)[O-])cc2/C1=C1/Nc2ccc(Cl)cc2C1=NO [Compound 12b, (2′Z, 3′E)-5′-Chloro-5-nitro-indirubin-3′-oxime] | 1100 | 500 | 1250 | 15600 | 560 | 1160 | ~300 | 23.5 | negligible inhibitory activities | IC50 [8]: 330 nM |
